Reference: patent US8828992B2, “Substituted azole derivatives, pharmaceutical composition containing the derivatives, and method for treating Parkinson's disease using the same” (priority 2009, dated 2014)

Biological target: T1, Monoamineoxidase B type human-derived enzyme (Homo sapiens, UniProt P27338)
T1 sequence (P27338 1-520): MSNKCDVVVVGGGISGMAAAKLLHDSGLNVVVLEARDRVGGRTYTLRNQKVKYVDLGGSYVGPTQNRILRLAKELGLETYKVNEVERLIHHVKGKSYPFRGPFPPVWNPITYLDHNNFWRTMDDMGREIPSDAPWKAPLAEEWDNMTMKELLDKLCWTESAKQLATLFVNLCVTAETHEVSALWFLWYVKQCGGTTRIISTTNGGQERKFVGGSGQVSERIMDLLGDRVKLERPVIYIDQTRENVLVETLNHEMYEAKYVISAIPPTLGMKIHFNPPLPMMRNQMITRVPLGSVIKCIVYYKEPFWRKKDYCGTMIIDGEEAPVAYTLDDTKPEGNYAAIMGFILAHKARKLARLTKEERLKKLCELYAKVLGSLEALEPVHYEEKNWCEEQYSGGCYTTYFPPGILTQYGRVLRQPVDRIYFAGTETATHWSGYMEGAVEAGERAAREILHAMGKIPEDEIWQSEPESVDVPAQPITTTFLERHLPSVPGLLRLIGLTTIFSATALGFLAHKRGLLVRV
Test: Inhibitory effects on the activity of MAO-B (Amplex Red fluorescence, benzylamine substrate)
Assay type: biochemical
Conditions: read-out: Inhibitory effects (%) on the activity of MAO-B
Method: Monoamineoxidase A or B type human-derived enzyme (5 mg/ml) was each diluted with 0.05 M sodium phosphate buffer (pH 7.4) to yield a dilution of 1:200, and then 100 μl of an enzyme buffer containing 2 μl of a compound 1 solution at the corresponding concentration was placed in a test plate (flat-bottom) and incubated for 30 minutes.
100 μl of a working buffer containing 400 μM of Amplex Red reagent, 2 U/ml horseradish peroxidase, and 2 mM substrate (tyramine for MAO-A and benzylamine for MAO-B) in 0.05 M sodium phosphate buffer (pH 7.4) was mixed with a pre-incubated enzyme buffer at 1:1 and measured using fluorescence (EX: 563 nm & EM: 587 nm) for 30 minutes.

Row | Compound | inhibition at 0.01 µM
1 | CCCOc1ccc(-c2cc(COC(N)=O)on2)cc1 [Example 42, carbamic acid 3-(4-propoxy-phenyl)-isoxazol-5-ylmethyl ester] | 85.3%
2 | CCOC(=O)COc1ccc(-c2cc(COC(N)=O)on2)cc1 [Example 47, [4-(5-carbamoyloxymethyl-isoxazol-3-yl)-phenoxy]-acetic acid ethyl ester] | 41.2%
3 | NC(=O)OCc1cc(-c2ccc(OCCCCO)cc2)no1 [Example 57, carbamic acid 3-[4-(4-hydroxy-butoxy)-phenyl]-isoxazol-5-ylmethyl ester] | 25%
4 | NC(=O)OCc1nc(-c2ccc(OCc3ccccc3)cc2)ns1 [Example 4, carbamic acid 3-(4-benzyloxy-phenyl)-[1,2,4]thiadiazol-5-ylmethyl ester] | 92%
5 | NC(=O)OCc1cc(-c2ccc(OCCCC(F)(F)F)cc2)no1 [Example 59, carbamic acid 3-[4-(4,4,4-trifluoro-butoxy)-phenyl]-isoxazol-5-ylmethyl ester] | 97.4%

Same assay, conditions: treatment concentration 10 nM

Row | Compound | Inhibitory effects (%) on the activity of MAO-B
6 | 3-[4-(4-methyl-benzyloxy)-phenyl]-isoxazol-5-ylmethyl ester [Example 28] | 87.4%

Same assay, conditions: treatment concentration 10 nM; read-out: Inhibitory effects (%) on the activity of MAO-B

Row | Compound | inhibition at 0.01 µM
7 | NC(=O)OCc1cc(-c2ccc(OCc3ccccc3C(F)(F)F)cc2)no1 [Example 201, carbamic acid 3-[4-(2-trifluoromethyl-benzyloxy)-phenyl]-isoxazol-5-ylmethyl ester] | 72.4%
8 | NC(=O)OCc1cc(-c2ccc(OCc3ccccc3)c(F)c2)no1 [Example 8, carbamic acid 3-(4-benzyloxy-3-fluoro-phenyl)-isoxazol-5-ylmethyl ester] | 72.7%
9 | NC(=O)OCCc1cc(-c2ccc(OCc3ccccc3)cc2)no1 [Example 118, carbamic acid 2-[3-(4-benzyloxy-phenyl)-isoxazol-5-yl]-ethyl ester] | 25.7%
10 | CC(C)c1ccc(COc2ccc(-c3cc(COC(N)=O)on3)cc2)cc1 [Example 32, Carbamic acid 3-[4-(4-isopropyl-benzyloxy)-phenyl]-isoxazol-5-ylmethyl ester] | 84.4%
11 | CC(Oc1ccc(-c2cc(COC(N)=O)on2)cc1)c1ccccc1 (stereo not drawn) [Example 10, carbamic acid 3-[4-(1-phenyl-ethoxy)-phenyl]-isoxazol-5-ylmethyl ester] | 98.2%
12 | O=C(OCc1cc(-c2ccc(OCc3ccccc3)cc2)no1)N1CCCC1 [Example 125, pyrrolidine-1-carboxylic acid 3-(4-benzyloxy-phenyl)-isoxazol-5-ylmethyl ester] | 65.8%
13 | NC(=O)OCc1cc(-c2ccc(OCc3nc4ccccc4s3)cc2)no1 [Example 64, Carbamic acid 3-[4-(benzothiazol-2-ylmethoxy)-phenyl]-isoxazol-5-ylmethyl ester] | 32.8%
14 | NC(=O)OCc1cc(-c2ccc(OCc3cccc([N+](=O)[O-])c3)cc2)no1 [Example 26, carbamic acid 3-[4-(3-nitro-benzyloxy)-phenyl]-isoxazol-5-ylmethyl ester] | 87.3%
15 | OC1CCN(Cc2cc(-c3ccc(OCc4ccccc4)cc3)no2)CC1 [Example 137, 1-[3-(4-benzyloxy-phenyl)-isoxazol-5-ylmethyl]-piperidin-4-ol] | 43.5%
16 | NC(=O)OCc1cc(-c2ccc(NCc3ccc(Cl)cc3Cl)cc2)no1 [Example 89, carbamic acid 3-[4-(2,4-dichloro-benzylamino)-phenyl]-isoxazol-5-ylmethyl ester] | 54.7%
17 | NC(=O)OCc1cc(-c2ccc(OCc3cc(F)ccc3Cl)cc2)no1 [Example 25, carbamic acid 3-[4-(2-chloro-5-fluoro-benzyloxy)-phenyl]-isoxazol-5-ylmethyl ester] | 83.2%
18 | NC(=O)OCc1cc(-c2ccc(NCc3cccc(F)c3F)cc2)no1 [Example 80, Carbamic acid 3-[4-(2,3-difluoro-benzylamino)-phenyl]-isoxazol-5-ylmethyl ester] | 74.5%
19 | CC(C)c1nccn1Cc1cc(-c2ccc(OCc3ccccc3)cc2)no1 [Example 179, 3-(4-benzyloxy-phenyl)-5-(2-isopropyl-imidazol-1-ylmethyl)-isoxazole] | 26.7%
20 | NC(=O)OCc1cc(-c2ccc(NCc3c(Cl)cccc3Cl)cc2)no1 [Example 91, carbamic acid 3-[4-(2,6-dichloro-benzylamino)-phenyl]-isoxazol-5-ylmethyl ester] | 73.1%

The remaining lines, values ahead:

Row | inhibition at 0.01 µM | Compound
21 | 96.8% | CCN(CC)Cc1cc(-c2ccc(OCc3ccccc3)cc2)no1 [Example 151, [3-(4-benzyloxy-phenyl)-isoxazol-5-ylmethyl]-diethyl-amine]
22 | 75.2% | COC(=O)c1ccc(COc2ccc(-c3cc(COC(N)=O)on3)cc2)cc1 [Example 27, 4-[4-(5-carbamoyloxymethyl-isoxazol-3-yl)-phenoxymethyl]-benzoic acid methyl ester]
23 | 78.6% | NC(=O)OCc1cc(-c2ccc(NCc3cccc(Cl)c3)cc2)no1 [Example 87, Carbamic acid 3-[4-(3-chloro-benzylamino)-phenyl]-isoxazol-5-ylmethyl ester]
24 | 87.6% | Cc1cccc(COc2ccc(-c3cc(COC(N)=O)on3)cc2)c1 [Example 200, carbamic acid 3-[4-(3-methyl-benzyloxy)-phenyl]-isoxazol-5-ylmethyl ester]
25 | 24.3% | NC(=O)OCc1cc(-c2ccc(NCc3c(Cl)ccc(Cl)c3Cl)cc2)no1 [Example 95, carbamic acid 3-[4-(2,3,6-trichloro-benzylamino)-phenyl]-isoxazol-5-ylmethyl ester]
26 | 58.1% | COC(=O)c1ccc(COc2ccc(-c3cc(COC(N)=O)on3)cc2)o1 [Example 73, 5-[4-(5-carbamoyloxymethyl-isoxazol-3-yl)-phenoxymethyl]-furan-2-carboxylic acid methyl ester]
27 | 27.1% | NC(=O)OCc1cc(-c2ccc(OCc3ccc4ccccc4n3)cc2)no1 [Example 70, Carbamic acid 3-[4-(quinolin-2-ylmethoxy)-phenyl]-isoxazol-5-ylmethyl ester]
28 | 40.9% | NC(=O)OCc1cc(-c2ccc(NCc3cccc(C(F)(F)F)c3)cc2)no1 [Example 96, Carbamic acid 3-[4-(3-trifluoromethyl-benzylamino)-phenyl]-isoxazol-5-ylmethyl ester]
29 | 23.7% | Cc1ccc(CNc2ccc(-c3cc(COC(N)=O)on3)cc2)cc1 [Example 100, Carbamic acid 3-[4-(4-methyl-benzylamino)-phenyl]-isoxazol-5-ylmethyl ester]
30 | 87% | NC(=O)OCc1cc(-c2ccc(NCc3ccc(F)cc3)cc2)no1 [Example 76, Carbamic acid 3-[4-(4-fluoro-benzylamino)-phenyl]-isoxazol-5-ylmethyl ester]
31 | 44.7% | OCCNCc1cc(-c2ccc(OCc3ccccc3)cc2)no1 [Example 168, 2-{[3-(4-benzyloxy-phenyl)-isoxazol-5-ylmethyl]-amino}-ethanol]
32 | 90.1% | NC(=O)OCc1cc(-c2ccc(OCc3ccc(C=O)cc3)cc2)no1 [Example 36, carbamic acid 3-[4-(4-formyl-benzyloxy)-phenyl]-isoxazol-5-ylmethyl ester]
33 | 71.5% | C=CCNCc1cc(-c2ccc(OCc3ccccc3)cc2)no1 [Example 176, Allyl-[3-(4-benzyloxy-phenyl)-isoxazol-5-ylmethyl]-amine]
34 | 22% | CN(C)NC(=O)OCc1cc(-c2ccc(OCc3ccccc3)cc2)no1 [Example 129, N′,N′-dimethyl-hydrazinecarboxylic acid 3-(4-benzyloxy-phenyl)-isoxazol-5-ylmethyl ester]
35 | 79.7% | Cc1ccccc1CNc1ccc(-c2cc(COC(N)=O)on2)cc1 [Example 99, Carbamic acid 3-[4-(2-methyl-benzylamino)-phenyl]-isoxazol-5-ylmethyl ester]
36 | 51.2% | CCc1nc(C)cn1Cc1cc(-c2ccc(OCc3ccccc3)cc2)no1 [Example 186, 3-(4-benzyloxy-phenyl)-5-(2-ethyl-4-methyl-imidazol-1-ylmethyl)-isoxazole]
37 | 50.1% | NC(=O)OCc1cc(-c2ccc(NCc3ccc(Cl)cc3)cc2)no1 [Example 85, Carbamic acid 3-[4-(4-chloro-benzylamino)-phenyl]-isoxazol-5-ylmethyl ester]

Same assay, conditions: treatment concentration 100 nM

Row | inhibition at 0.1 µM | Compound
38 | 95.7% | NC(=O)OCc1cc(-c2ccc(OCc3ccc(Cl)cc3Cl)cc2)no1 [Example 198, carbamic acid 3-[4-(2,4-dichlorobenzyloxy)-phenyl]-isoxazol-5-ylmethyl ester]
39 | 96.7% | NC(=O)OCc1cc(-c2ccc(OCc3cc(F)ccc3F)cc2)no1 [Example 197, carbamic acid 3-[4-(2,5-difluoro-benzyloxy)-phenyl]-isoxazol-5-ylmethyl ester]
